Each structure is given as a SMILES string.

The target of the test is T1, FBXL11 (Homo sapiens, UniProt Q9Y2K7).
T1 construct: purchased BPS Bioscience 50102
T1 sequence (Q9Y2K7 1-1162): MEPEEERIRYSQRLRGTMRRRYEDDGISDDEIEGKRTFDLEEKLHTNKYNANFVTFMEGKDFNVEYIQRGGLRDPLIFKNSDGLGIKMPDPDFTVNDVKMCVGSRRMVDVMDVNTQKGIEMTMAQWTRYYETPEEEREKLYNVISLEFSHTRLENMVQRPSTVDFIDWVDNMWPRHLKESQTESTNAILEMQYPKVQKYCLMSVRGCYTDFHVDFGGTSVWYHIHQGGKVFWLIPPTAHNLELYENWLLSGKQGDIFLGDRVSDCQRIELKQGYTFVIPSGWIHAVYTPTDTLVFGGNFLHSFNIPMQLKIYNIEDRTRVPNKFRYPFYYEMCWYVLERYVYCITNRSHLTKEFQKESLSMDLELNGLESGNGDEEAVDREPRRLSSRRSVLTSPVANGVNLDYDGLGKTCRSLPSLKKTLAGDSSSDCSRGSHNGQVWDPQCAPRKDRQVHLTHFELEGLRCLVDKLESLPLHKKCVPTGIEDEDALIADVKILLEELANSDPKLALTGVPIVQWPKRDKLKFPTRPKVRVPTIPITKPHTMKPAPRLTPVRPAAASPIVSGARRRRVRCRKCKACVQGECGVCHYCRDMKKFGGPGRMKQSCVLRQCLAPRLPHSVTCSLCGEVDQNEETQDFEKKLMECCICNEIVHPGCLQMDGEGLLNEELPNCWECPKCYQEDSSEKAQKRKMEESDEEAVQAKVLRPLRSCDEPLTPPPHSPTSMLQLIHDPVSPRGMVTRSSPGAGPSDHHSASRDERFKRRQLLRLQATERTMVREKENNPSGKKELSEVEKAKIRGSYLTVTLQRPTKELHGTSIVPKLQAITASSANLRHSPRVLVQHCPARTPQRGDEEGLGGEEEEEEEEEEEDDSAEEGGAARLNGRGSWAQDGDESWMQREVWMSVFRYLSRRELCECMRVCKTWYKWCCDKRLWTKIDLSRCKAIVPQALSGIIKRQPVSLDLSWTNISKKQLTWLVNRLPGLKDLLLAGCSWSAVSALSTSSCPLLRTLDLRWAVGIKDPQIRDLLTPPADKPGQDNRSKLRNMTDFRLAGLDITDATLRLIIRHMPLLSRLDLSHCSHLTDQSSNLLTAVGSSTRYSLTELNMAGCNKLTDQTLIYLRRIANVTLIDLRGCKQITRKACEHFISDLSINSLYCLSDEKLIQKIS
Nature of the test: FBXL11 in vitro enzyme inhibition assay (AlphaScreen). In kind it is biochemical. As to conditions: Table 3; 0.15 nM FBXL11, H3K36me2-biotin labeled peptide. From the text: This assay determines the ability of a test compound to inhibit FBXL11, FBXL10, and PHF8 demethylase activity. Baculovirus expressed FBXL11 (GenBank Accession #NM_012308, AA1-1162) was purchased from BPS Bioscience (Cat#50102). Baculovirus expressed FBXL10 (GenBank Accession #NM_032590, AA 1-650) was purchased from BPS Bioscience (Cat #50120). Baculovirus expressed PHF8 (GenBank Accession NP_055922.1) was purchased from Active Motif (Cat#31435).
The ability of test compounds to inhibit the activity of FBXL11 was determined in 384-well plate format under the following reaction conditions: 0.15 nM FBXL11, 30 nM H3K36me2-biotin labeled peptide (Anaspec cat # 64442), 0.2 µM alpha-ketoglutaric acid in assay buffer of 50 mM HEPES, pH7.3, 0.005% Brij35, 0.5 mM TCEP, 0.2 mg/ml BSA, 50 µM sodium L-ascorbate, 5 µM ammonium iron(II) sulfate. Reaction product is determined quantitatively by AlphaScreen detection after the addition of detection reagents anti-H3K36me1 antibody, AlphaScreen® Streptavidin-coated Donor beads, and AlphaScreen® Protein A Acceptor beads in 50 mM HEPES, pH7.3, 10 mM NaCl, 0.005% Brij35, 5 mM EDTA, 2 mg/ml BSA to final 10 µg/ml beads.
The assay reaction was initiated by the following: 3 µl of the mixture of 90 nM H3K36me2-biotin labeled peptide and 0.6 µM alpha-ketoglutaric acid with 3 µl of 11-point serial diluted inhibitor in 3% DMSO are added to each well of 384 well Proxiplate (Perkin Elmer), followed by the addition of 3 µl of 0.45 nM FBXL11 to initiate the reaction. The reaction mixture is incubated at room temperature for 1 hour, and terminated by the addition of 3 µl of appropriate dilution of anti H3K36me1 antibody in 50 mM HEPES, pH7.3, 10 mM NaCl, 0.005% Brij35, 5 mM EDTA, 2 mg/ml BSA. Plates will then incubated at room temperature for 40 minutes, followed by addition of 3 µl of 50 µg/ml AlphaScreen® Streptavidin-coated Donor beads and AlphaScreen® Protein A Acceptor beads in 50 mM HEPES, pH7.3, 10 mM NaCl, 0.005% Brij35, 5 mM EDTA, 2 mg/ml BSA. Plates will then be read by EnVision Multilabel Reader in AlphaScreen mode after minimum 2 hour incubation at room temperature. The AlphaScreen signal for each well is used to determine inhibition constant (IC50).

`c1ccc(Cn2cnc(-c3cc4[nH]nnc4cn3)c2)cc1` [Example 44, 1-benzyl-4-{1H-[1,2,3]triazolo[4,5-c]pyridin-6-yl}-1H-imidazole] yielded a half-inhibitory concentration (IC50) of at most 100 nM.
Under `Clc1ccccc1Cn1cnc(-c2cc3[nH]nnc3cn2)c1` [Example 45, 1-[(2-chlorophenyl)methyl]-4-{1H-[1,2,3]triazolo[4,5-c]pyridin-6-yl}-1H-imidazole] stands at most 100 nM; under `Clc1cccc(Cn2cnc(-c3cc4[nH]nnc4cn3)c2)c1` [Example 46, 1-[(3-chlorophenyl)methyl]-4-{1H-[1,2,3]triazolo[4,5-c]pyridin-6-yl}-1H-imidazole], at most 100 nM; under `Clc1ccc(Cn2cnc(-c3cc4[nH]nnc4cn3)c2)cc1` [Example 47, 1-[(4-chlorophenyl)methyl]-4-{1H-[1,2,3]triazolo[4,5-c]pyridin-6-yl}-1H-imidazole], at most 100 nM.
On to `Clc1ccc(Cn2cnc(-c3cc4[nH]nnc4cn3)c2)cc1Cl` [Example 48, 1-[(3,4-dichlorophenyl)methyl]-4-{1H-[1,2,3]triazolo[4,5-c]pyridin-6-yl}-1H-imidazole], for which the half-inhibitory concentration (IC50) is at most 100 nM.
The same measure for `Clc1ccc(-n2cnc(-c3cc4[nH]nnc4cn3)c2)cc1` [Example 49, 1-(4-chlorophenyl)-4-{1H-[1,2,3]triazolo[4,5-c]pyridin-6-yl}-1H-imidazole]: at most 100 nM; for `Clc1ccccc1-n1cnc(-c2cc3[nH]nnc3cn2)c1` [Example 50, 1-(2-chlorophenyl)-4-{1H-[1,2,3]triazolo[4,5-c]pyridin-6-yl}-1H-imidazole]: at most 100 nM.
The same measure for `Clc1cccc(-n2cnc(-c3cc4[nH]nnc4cn3)c2)c1` [Example 51, 1-(3-chlorophenyl)-4-{1H-[1,2,3]triazolo[4,5-c]pyridin-6-yl}-1H-imidazole]: 100 to 1000 nM.

Values taken from EP3436445B1, “HISTONE DEMETHYLASE INHIBITORS” (Celgene Quanticel Research, Inc., priority 2016, dated 2017).
